Reference: publication PMC7615656 (European journal of pharmacology, 2010)

Legend:
[1] = target: recombinant rat α2β3γ2F77I receptors (Rattus norvegicus, UniProt P18508+P23576, F115I); experiment: Two-electrode voltage clamp of GABA-induced chloride currents in Xenopus oocytes; type: cell-based; settings: α2β3γ2F77I, ns = not significant
[2] = target: recombinant rat α3β3γ2F77I receptors (Rattus norvegicus, UniProt P18508+P20236, F115I); experiment: as above; type: cell-based; settings: α3β3γ2F77I, ns = not significant
Chain of recombinant rat α3β3γ2F77I receptors (P20236 29-493): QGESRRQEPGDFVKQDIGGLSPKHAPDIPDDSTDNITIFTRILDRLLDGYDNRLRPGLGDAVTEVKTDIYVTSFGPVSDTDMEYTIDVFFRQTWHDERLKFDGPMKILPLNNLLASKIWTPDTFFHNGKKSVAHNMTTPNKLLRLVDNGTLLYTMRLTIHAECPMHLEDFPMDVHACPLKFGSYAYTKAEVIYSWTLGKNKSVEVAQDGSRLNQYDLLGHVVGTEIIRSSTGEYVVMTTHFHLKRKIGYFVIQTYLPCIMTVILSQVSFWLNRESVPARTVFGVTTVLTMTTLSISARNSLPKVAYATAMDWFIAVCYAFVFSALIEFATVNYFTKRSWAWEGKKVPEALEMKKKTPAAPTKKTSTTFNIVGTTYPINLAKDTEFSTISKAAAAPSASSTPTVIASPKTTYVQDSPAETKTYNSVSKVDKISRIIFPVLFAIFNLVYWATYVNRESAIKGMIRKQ
Chain of recombinant rat α3β3γ2F77I receptors (P63079 26-473 partner): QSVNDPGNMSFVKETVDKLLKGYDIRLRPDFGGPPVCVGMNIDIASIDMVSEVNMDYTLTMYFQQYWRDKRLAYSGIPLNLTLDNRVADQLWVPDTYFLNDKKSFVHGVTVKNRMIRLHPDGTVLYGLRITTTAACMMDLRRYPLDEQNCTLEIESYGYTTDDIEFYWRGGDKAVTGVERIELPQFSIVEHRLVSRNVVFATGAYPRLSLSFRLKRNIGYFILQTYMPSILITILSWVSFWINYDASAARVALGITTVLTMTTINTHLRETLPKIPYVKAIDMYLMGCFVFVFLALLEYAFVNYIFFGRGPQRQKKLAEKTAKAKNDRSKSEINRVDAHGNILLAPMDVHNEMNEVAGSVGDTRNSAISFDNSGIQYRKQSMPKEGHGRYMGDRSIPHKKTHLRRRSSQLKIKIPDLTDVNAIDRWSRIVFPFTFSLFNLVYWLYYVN
Chain of recombinant rat α3β3γ2F77I receptors (P18508 39-466 F115I): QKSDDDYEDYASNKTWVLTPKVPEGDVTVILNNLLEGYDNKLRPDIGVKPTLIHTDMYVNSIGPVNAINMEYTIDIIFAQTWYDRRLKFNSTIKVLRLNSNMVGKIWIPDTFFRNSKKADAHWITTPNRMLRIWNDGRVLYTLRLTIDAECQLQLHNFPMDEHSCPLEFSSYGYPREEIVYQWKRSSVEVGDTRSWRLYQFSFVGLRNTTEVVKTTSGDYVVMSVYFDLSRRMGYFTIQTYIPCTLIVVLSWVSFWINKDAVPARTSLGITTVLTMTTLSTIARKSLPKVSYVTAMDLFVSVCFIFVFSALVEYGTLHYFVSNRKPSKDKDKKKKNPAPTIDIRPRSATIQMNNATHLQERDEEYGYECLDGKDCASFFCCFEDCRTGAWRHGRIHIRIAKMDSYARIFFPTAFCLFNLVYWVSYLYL

[3] = system: GABAA receptors containing the γ2F77I mutation; experiment: Modulation of GABA EC3 in receptors containing the γ2F77I mutation; type: cell-based, rat; settings: 10 μM; some γ2F77I receptors
[4] = target: recombinant rat α5β3γ2 receptors (Rattus norvegicus, UniProt P18508+P19969); experiment: Two-electrode voltage clamp of GABA-induced chloride currents in Xenopus oocytes; type: cell-based; settings: α5β3γ2, ns = not significant
Chain of recombinant rat α5β3γ2 receptors (P19969 32-464 limits assumed): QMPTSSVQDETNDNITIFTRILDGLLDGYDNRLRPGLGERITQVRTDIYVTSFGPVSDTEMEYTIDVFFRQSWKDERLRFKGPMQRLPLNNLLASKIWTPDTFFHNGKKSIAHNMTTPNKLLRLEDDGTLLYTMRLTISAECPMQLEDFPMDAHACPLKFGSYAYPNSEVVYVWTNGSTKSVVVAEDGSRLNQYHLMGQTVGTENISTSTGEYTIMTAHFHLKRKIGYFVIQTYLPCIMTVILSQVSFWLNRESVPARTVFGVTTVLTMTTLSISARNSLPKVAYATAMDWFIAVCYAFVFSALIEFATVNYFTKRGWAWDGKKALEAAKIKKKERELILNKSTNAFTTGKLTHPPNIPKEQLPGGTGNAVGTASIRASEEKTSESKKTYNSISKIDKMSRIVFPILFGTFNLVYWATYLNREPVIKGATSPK
Chain of recombinant rat α5β3γ2 receptors (P63079 26-473 partner): as the sequence (P63079 26-473 partner) above
Chain of recombinant rat α5β3γ2 receptors (P18508 39-466): as the sequence (P18508 39-466 F115I) above, with I77F counted along it

[5] = target: recombinant rat α5β3γ2F77I receptors (Rattus norvegicus, UniProt P18508+P19969, F115I); experiment: as above; type: cell-based; settings: α5β3γ2F77I, ns = not significant
Chain of recombinant rat α5β3γ2F77I receptors (P19969 32-464 limits assumed): as the sequence (P19969 32-464 limits assumed) above
Chain of recombinant rat α5β3γ2F77I receptors (P63079 26-473 partner): as the sequence (P63079 26-473 partner) above
Chain of recombinant rat α5β3γ2F77I receptors (P18508 39-466 F115I): as the sequence (P18508 39-466 F115I) above

[6] = target: recombinant rat α4β3γ2 receptors (Rattus norvegicus, UniProt P18508+P28471); experiment: as above; type: cell-based; settings: α4β3γ2; for efficacy (% GABA EC3): ns = not significant
Chain of recombinant rat α4β3γ2 receptors (P28471 36-552): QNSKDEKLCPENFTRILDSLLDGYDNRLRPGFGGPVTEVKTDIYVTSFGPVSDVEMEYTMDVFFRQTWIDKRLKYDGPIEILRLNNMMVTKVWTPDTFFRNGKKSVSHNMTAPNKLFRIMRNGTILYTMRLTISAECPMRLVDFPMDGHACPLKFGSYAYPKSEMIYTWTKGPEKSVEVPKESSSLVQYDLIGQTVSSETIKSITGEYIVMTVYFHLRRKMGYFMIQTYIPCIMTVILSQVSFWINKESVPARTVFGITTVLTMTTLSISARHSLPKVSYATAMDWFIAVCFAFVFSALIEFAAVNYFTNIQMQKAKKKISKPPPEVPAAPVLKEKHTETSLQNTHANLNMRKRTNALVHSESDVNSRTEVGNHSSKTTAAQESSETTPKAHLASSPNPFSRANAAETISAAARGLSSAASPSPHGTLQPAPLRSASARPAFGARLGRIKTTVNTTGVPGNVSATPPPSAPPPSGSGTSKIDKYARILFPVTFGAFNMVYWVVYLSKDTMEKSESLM
Chain of recombinant rat α4β3γ2 receptors (P63079 26-473 partner): as the sequence (P63079 26-473 partner) above
Chain of recombinant rat α4β3γ2 receptors (P18508 39-466): as the sequence (P18508 39-466 F115I) above, with I77F counted along it

[7] = system: GABAA receptors of mice containing the point mutation γ2F77I; settings: receptor binding; ref Ogris et al., 2004; cited from earlier work
[8] = target: recombinant rat α1β3γ2F77I receptors (Rattus norvegicus, UniProt P18508+P62813, F115I); experiment: Two-electrode voltage clamp of GABA-induced chloride currents in Xenopus oocytes; type: cell-based; settings: α1β3γ2F77I, ns = not significant
Chain of recombinant rat α1β3γ2F77I receptors (P62813 28-455): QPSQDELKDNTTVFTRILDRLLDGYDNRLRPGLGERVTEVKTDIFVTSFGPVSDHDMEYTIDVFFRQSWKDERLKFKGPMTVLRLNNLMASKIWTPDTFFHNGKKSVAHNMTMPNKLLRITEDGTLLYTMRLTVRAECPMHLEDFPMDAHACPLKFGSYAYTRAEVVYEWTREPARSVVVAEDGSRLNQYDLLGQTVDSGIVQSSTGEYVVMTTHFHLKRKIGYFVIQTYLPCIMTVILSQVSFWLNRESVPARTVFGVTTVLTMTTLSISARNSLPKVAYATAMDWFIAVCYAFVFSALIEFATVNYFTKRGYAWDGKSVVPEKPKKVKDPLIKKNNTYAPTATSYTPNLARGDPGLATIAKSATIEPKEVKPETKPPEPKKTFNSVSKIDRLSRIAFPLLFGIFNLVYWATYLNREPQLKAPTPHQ
Chain of recombinant rat α1β3γ2F77I receptors (P63079 26-473 partner): as the sequence (P63079 26-473 partner) above
Chain of recombinant rat α1β3γ2F77I receptors (P18508 39-466 F115I): as the sequence (P18508 39-466 F115I) above

[9] = target: recombinant rat α6β3γ2 receptors (Rattus norvegicus, UniProt P18508+P30191); experiment: as above; type: cell-based; settings: α6β3γ2
Chain of recombinant rat α6β3γ2 receptors (P30191 20-453): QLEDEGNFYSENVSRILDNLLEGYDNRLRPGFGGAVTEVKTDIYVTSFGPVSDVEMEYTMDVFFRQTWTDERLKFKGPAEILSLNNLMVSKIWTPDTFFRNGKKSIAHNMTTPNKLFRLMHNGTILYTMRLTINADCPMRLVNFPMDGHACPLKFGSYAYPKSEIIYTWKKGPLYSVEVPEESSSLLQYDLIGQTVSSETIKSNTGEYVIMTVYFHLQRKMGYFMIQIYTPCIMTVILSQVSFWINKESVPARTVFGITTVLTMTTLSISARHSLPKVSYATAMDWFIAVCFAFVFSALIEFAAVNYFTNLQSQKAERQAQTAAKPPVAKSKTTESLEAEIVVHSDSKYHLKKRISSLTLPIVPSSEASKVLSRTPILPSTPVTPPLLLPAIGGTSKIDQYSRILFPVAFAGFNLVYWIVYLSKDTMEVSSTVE
Chain of recombinant rat α6β3γ2 receptors (P63079 26-473 partner): as the sequence (P63079 26-473 partner) above
Chain of recombinant rat α6β3γ2 receptors (P18508 39-466): as the sequence (P18508 39-466 F115I) above, with I77F counted along it

Chain of recombinant rat α2β3γ2F77I receptors (P23576 29-451): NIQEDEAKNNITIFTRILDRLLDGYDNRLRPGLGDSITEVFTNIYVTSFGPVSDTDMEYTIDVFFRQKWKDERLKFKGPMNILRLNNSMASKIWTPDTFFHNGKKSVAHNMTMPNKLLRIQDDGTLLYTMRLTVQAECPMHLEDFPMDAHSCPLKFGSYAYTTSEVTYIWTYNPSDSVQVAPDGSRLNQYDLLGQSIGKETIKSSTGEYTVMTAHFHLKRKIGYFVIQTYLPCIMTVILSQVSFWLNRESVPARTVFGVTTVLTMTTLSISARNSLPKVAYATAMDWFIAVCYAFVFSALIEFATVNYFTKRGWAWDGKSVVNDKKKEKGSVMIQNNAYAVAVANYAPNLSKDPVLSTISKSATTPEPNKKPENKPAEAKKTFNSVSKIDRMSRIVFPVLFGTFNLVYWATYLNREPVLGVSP
Chain of recombinant rat α2β3γ2F77I receptors (P63079 26-473 partner): as the sequence (P63079 26-473 partner) above
Chain of recombinant rat α2β3γ2F77I receptors (P18508 39-466 F115I): as the sequence (P18508 39-466 F115I) above

Cc1ccc(-c2nc3ccc(C)cn3c2CC(=O)N(C)C)cc1 [Zolpidem, N,N,6-trimethyl-2-(4-methylphenyl)imidazo[1,2-a]-pyridine-3-acetamide]
efficacy (% GABA EC3) ([1]; 100 nM): ns
efficacy (% GABA EC3) ([1]; 1 μM): ns
efficacy (% GABA EC3) ([1]; 10 μM): 145 ± 3 % GABA EC3
efficacy (% GABA EC3) ([2]; 100 nM): ns
efficacy (% GABA EC3) ([2]; 1 μM): ns
efficacy (% GABA EC3) ([2]; 10 μM): 145 ± 5 % GABA EC3
stimulation of GABA-induced chloride flux [3]: 20–40%
efficacy (% GABA EC3) ([4]; 100 nM): ns
efficacy (% GABA EC3) ([4]; 1 μM): ns
efficacy (% GABA EC3) ([4]; 10 μM): ns
efficacy (% GABA EC3) ([4]; 10 μM, listed as zolpidem): unable to modulate
efficacy (% GABA EC3) ([5]; 100 nM): ns
efficacy (% GABA EC3) ([5]; 1 μM): ns
efficacy (% GABA EC3) ([6]; 100 nM): ns
efficacy (% GABA EC3) ([6]; 1 μM): ns
efficacy (% GABA EC3) ([6]; 10 μM): ns
maximal effect on GABA-induced chloride flux (GABA EC3), % of control current ([6]; control current = 100%): did not significantly enhance
shift in affinity caused by γ2F77I [7]: approximately 300 fold
efficacy (% GABA EC3) ([8]; 100 nM): ns
efficacy (% GABA EC3) ([8]; 1 μM): ns
efficacy (% GABA EC3) ([8]; 10 μM): 142 ± 8 % GABA EC3
efficacy (% GABA EC3) ([9]; 10 μM, ns = not significant): ns
maximal effect on GABA-induced chloride flux (GABA EC3), % of control current ([9]; control current = 100%): did not significantly enhance
